Source: patent US8003602B2 (priority 2006, dated 2011)
Values after ≈ are worked out from the molar mass of the structure shown.

Key:
E. faecalis ATCC 51575 = format: cell-based
Excerpt: (§1) The in-vitro potency was established by minimum inhibitory concentration (MIC) determinations of the compound PM181104 against bacterial strains, by using the Macro-broth dilution method as per National Committee for Clinical Laboratory Standards (2000) guidelines [Journal of Anti-microbial Chemotherapy, 2002, 50, 125-128 (Cross Reference 8: Methods for Dilution Antimicrobial Susceptibility Tests for Bacteria that Grow Aerobically-Fifth Edition: Approved Standard M7-A5. NCCLS, Wayne, Pa., USA)]. Unless stated otherwise, Mueller-Hinton broth was used as nutrient medium for the assay. Linezolid (manufactured by Glenmark Pharma Ltd; Batch no: K2005028) was used as known standard in all in-vitro experiments. For preparation of the stock solution the compound PM181104 was dissolved in chloroform (5% of the total required volume) and diluted using methanol (95% of the total required volume).

E. faecalis, ATCC 51299 = format: cell-based
Excerpt: as §1

[1] = test system: Staphylococcus aureus subsp. aureus ATCC 33591; format: cell-based; settings: S. aureus MRSA ATCC 33591
Excerpt: as §1

B. cereus = test: MIC, Macro-broth dilution method; format: cell-based, Bacillus cereus
Excerpt: as §1

[2] = test system: methicillin resistant Staphylococcus aureus E710 (MRSA); test: Systemic infection model (septicemia); format: in vivo, Balb/C mice; settings: mice infected intraperitoneally with MRSA E710, administered intravenously immediately after infection
Excerpt: (§2) The in-vivo potency was established by protection dose (PD) determinations of the compound PM181104 for its antibiotic activity in three animal models using either male or female Balb/C mice.
(§3) The models used were the general purpose efficacy testing models and organ/tissue specific efficacy testing models. The general purpose efficacy testing models used were systemic infection model (septicemia), and localized infection model (neutropenic thigh model). The Organ/Tissue specific infection models used for efficacy testing were kidney, lung infection, and skin abscess model.
The animals were infected intraperitoneally with ˜10^8 to 10^9 cfu of an overnight grown culture of methicillin resistant Staphylococcus aureus E710 (MRSA), suspended in normal saline (0.85% sodium chloride). PM181104 solution was prepared in cremophor-ethanol formulation as described in example 14. The solution was administered intravenously at 5 mg, 2.5 mg and 1.25 mg/kg doses, immediately after infection. Each experimental group consisted of ten animals.

S. aureus E-710 = test: Neutropenic thigh model; format: in vivo, Balb/C mice; settings: 5 mg/kg intravenously two hours post infection, 6 hour time point
Excerpt: as §2, §3
Each experimental group consisted of six animals. PM181104 was prepared in cremophor-ethanol formulation as described in example 14.

[3] = test system: Enterococcus faecium ATCC 47077; test: Kidney infection model; format: in vivo, Balb/C mice; settings: 5 mg/kg intravenously at 4, 24 and 48 hours post-infection, kidneys harvested at 72 hours
Excerpt: as §2, §3
0.2 ml of 2% λ Carrageenan was administered intravenously to Balb/C mice 7 days prior to infection. Overnight grown log phase culture of Enterococcus faecium ATCC 47077 adjusted to approximately 10^9 cfu/ml, was injected intravenously to the mice at a volume of 0.2 ml. PM181104 solution, prepared in cremophor-ethanol formulation as described in example 14, was administered intravenously to the mice at 4 hours, 24 hours and 48 hours post-infection. At 72 hours post infection, the animals were sacrificed and kidneys were harvested to determine the bacterial load. […] Linezolid (manufactured by Glenmark Pharma Ltd; Batch no: K2005028) at 25 mg/kg and Vancomycin hydrochloride (manufactured by HiMedia; Catalogue no: RM217-500 mg; Lot no: 06-0350) at 150 mg/kg dose.

[4] = solvents in which soluble
Excerpt: The physico-chemical and spectral properties of the compound PM181104

## C=C(NC(=O)C(=C)NC(=O)C1CCCN1C(=O)c1nc(-c2ccc(-c3nc(C(=O)NC(=C)C(=O)NC(C)C(N)=O)cs3)c(-c3csc(C4Cc5nc(cs5)C(=O)NC(Cc5ccccc5)C5=NC(CS5)C(=O)NC(Cc5ccc(O)cc5)C(=O)N5CCCC5c5nc(cs5)C(=O)N4)n3)n2)oc1C)C(N)=O (centres unmarked) [PM181104]
E. faecalis ATCC 51575
  MIC: 0.03125 mg/L (≈ 0.0206 µM)
E. faecalis, ATCC 51299
  MIC: 0.01563 mg/L (≈ 0.0103 µM)
[1]
  MIC: 0.03125 mg/L (≈ 0.0206 µM)
B. cereus
  MIC: 0.00391 mg/L (≈ 0.00258 µM)
[2]
  PD100: 5 mg/kg
S. aureus E-710
  decrease in viable counts in thigh tissue: approximately 1 log
[3]
  decrease in bacterial count in kidneys: approximately 1 log
[4]
  Solubility: Methanol, DMSO
